# From US20160015064A1, “COMPOUNDS, COMPOSITIONS, AND METHODS FOR MODULATING SWEET TASTE” (CHROMOCELL CORPORATION, priority 2013, published 2016)
# Tests used:
# [1] = tested on: perception of the sweet taste of an aqueous solution of sweetener; test: Two-alternative forced choice sip and spit method (2AFC); assay type: in vivo, humans
# Procedure: The effect of the test compounds on the perception of the sweet taste of an aqueous solution of sweetener in humans was evaluated using a two-alternative forced choice “sip and spit” method (2AFC).
# The aqueous sweetener solutions were prepared by adding, fructose, sucrose or glucose (by weight), to water to achieve the desired concentration.
# Compounds were first prepared as a 500-fold concentrated stock solution in 100% ethanol. These concentrated stocks were then added to the aqueous sweetener solutions to result in a final ethanol concentration of 0.2%. The control (positive and negative) samples were also normalized to 0.2% ethanol. This level of ethanol was not seen to contribute any perceived sweetness.
# The 2AFC test used for compound evaluation was a blind and randomized test where taste panelists (n=15) evaluate a pair of sweetener solutions at a time—one sample contains aqueous sweetener solution plus compound (i.e. test) while the other contains aqueous sweetener solution at higher concentration without compound (i.e. positive control). Each test sample was compared against a positive control. For example, if the test sample contained 1× sweetener concentration with compound (e.g. 5% sucrose with compound), the positive control sample contained a 1.1× sweetener concentration (e.g. 5.5% sucrose without compound).
# Panelists were instructed not to eat or drink (except water) for at least 1 h before the test. During the test, panelists were instructed to sip each sample, swirl it around their mouth and then expectorate. After tasting each sample in the pair, panelists were instructed to record the sample that is “sweeter” in taste. Panelists cleansed their palates by rinsing with water, eating a cracker and waiting for an interval of about 5 minutes. Each pair was tasted twice. All samples were tasted at ambient temperatures. Data were analyzed using binomial probabilities.
# Approximate levels of sweetness enhancement in column 5 of Table 2 were calculated as follows:
# Approximate levels of sweetness enhancement=Sweetener concentration of positive control surpassed by the test sample, divided by sweetener concentration for compound-containing sample (e.g. 1.15×=5.75% sucrose/5% sucrose).
# [2] = tested on: perception of the sweet taste in an aqueous environment; test: Trained descriptive analysis (DA) panel, sweet attribute; assay type: in vivo, humans; conditions: for DA Panel Average Sweetness Intensity Score (on 15 cm scale) / Fold enhancement of sweetness perception as compared to control sweetener solution / Perceived inherent sweetness compared to solubilizing agent alone / Perceived sweetness compared to solubilizing agent alone (inherent sweetness): 35 ppm compound plus solubilizing agent; for Perceived inherent sweetness compared to solubilizing agent alone: citric acid-citrate solution pH 3; for Compound effects beyond the additive effect of inherent sweetness: 4% fructose and 8% sucrose; for Compound effects beyond the additive effect of inherent sweetness / Perceived sweetness vs control sweetener solutions (FIG. 2) / Perceived sweetness vs control sweetener solutions (FIG. 1): 35 ppm; for Perceived sweetness vs control sweetener solutions (FIG. 2) / Perceived sweetness vs control sweetener solutions (FIG. 1): fructose and sucrose, ** p<0.01; for Perceived sweetness compared to solubilizing agent alone (inherent sweetness): water pH 7
# Procedure: The effect of the test compounds on the perception of the sweet taste in an aqueous environment, in the absence or presence of carbohydrate sweeteners, was evaluated using a descriptive analysis methodology with a group of trained panelists, as follows.
# Candidate panelists were recruited, with prescreening and personal interviews, and were assessed for their ability to detect, recognize and differentiate basic taste attributes or mixtures thereof as part of a standardized acuity test. These candidate panelists were also assessed for their innate ability to identify flavors, and to rank on intensity scales. Other senses such as smell and vision were also included as part of the assessment. Candidates also were screened for their ability to use the language to describe and articulate ideas.
# Selected candidates proceeded to training as a group in three phases: (1) Lexicon development, (2) Concept alignment, and (3) Scaling descriptors. During lexicon development, panelists evaluated products appropriate for use in the study to generate and align on terms describing the flavor, taste, aromatic, trigeminal, and temporal attributes. During concept alignment, the panel evaluated the products mentioned above to clarify and confirm the attributes that were generated during lexicon development using reference standards that appropriately define each attribute; these are either physical references (e.g. sucrose solutions) or verbal descriptions (e.g. overall flavor). Product terms and concepts were validated during this portion of the study.
# In the last phase, scaling descriptors, the panel participated in a series of exercises focused on ordering and ranking samples according to relative attribute intensity, measuring attribute intensity using a defined length of line scale. Whenever possible, different levels or concentration of references were used as anchors to facilitate use of the scale. Panelists were provided with blinded references at this stage to evaluate their understanding and perception of the scale.
# The panel used in this example was trained to reference sweet attributes in an absolute manner, such that a particular concentration of sweetener is always measured by the panelists at the same point using a 15 cm line scale where each cm represents a 1% increase in sucrose to cover the range of 0% to 15% sucrose. For the rest of the attributes, the panel was trained using a hybrid approach between descriptive analysis methods (e.g. quantitative descriptive analysis, the sensory spectrum, etc.) well-known to those skilled in the art.
# The trained panel was then used for a descriptive analysis assessment for Compounds 1, 2 and 3 in aqueous solutions at pH 3 and pH 7. Each of the three compounds was tested at 35 ppm in sucrose and fructose sweeteners. In addition, Compounds 1, 2 and 3 were also examined in water at pH 3 and pH 7 to assess for any inherent sweetness.
# The aqueous sweetener solutions were prepared by adding, fructose or sucrose (by weight), to water to achieve the desired concentration. Aqueous sucrose solutions at pH 3 were buffered using a final concentration of 0.096% Citric Acid plus 0.036% Sodium Citrate while aqueous fructose solutions at pH 3 were buffered using a final concentration of 0.06% Citric Acid and 0.0225% Sodium Citrate.
# Compounds were first prepared as a […] concentrated stock solution in 100% ethanol. These concentrated stocks were then added to the aqueous sweetener solutions to result in a final ethanol concentration of 0.2%. In addition to compounds, a solubilizing agent at a final concentration of 0.02% was added to the aqueous sweetener solutions. Control samples were also balanced with 0.2% ethanol and in certain cases 0.02% solubilizing agent.
# Both control (aqueous sweetener solutions without compound) and variant (aqueous sweetener solutions with compound) samples were blinded and randomized (by sweetener and pH blocks). […]
# [3] = test sample 4% fructose, compound 25 ppm with positive 2AFC
# [4] = citric acid-citrate solution pH 3, no sweetener
# [5] = water pH 7, no sweetener, 1 cm = 1% sucrose
Structure (SMILES),"Fold increase in perceived sweetness [1, 3] [X]","DA Panel Average Sweetness Intensity Score (on 15 cm scale) ([2]; 4% fructose, pH 3)","Fold enhancement of sweetness perception as compared to control sweetener solution ([2]; 4% fructose, pH 3) [X]","DA Panel Average Sweetness Intensity Score (on 15 cm scale) ([2]; 4% fructose, pH 7)","Fold enhancement of sweetness perception as compared to control sweetener solution ([2]; 4% fructose, pH 7) [X]","DA Panel Average Sweetness Intensity Score (on 15 cm scale) ([2]; 8% sucrose, pH 3)","Fold enhancement of sweetness perception as compared to control sweetener solution ([2]; 8% sucrose, pH 3) [X]","DA Panel Average Sweetness Intensity Score (on 15 cm scale) ([2]; 8% sucrose, pH 7)","Fold enhancement of sweetness perception as compared to control sweetener solution ([2]; 8% sucrose, pH 7) [X]","DA Panel Average Sweetness Intensity Score (on 15 cm scale) [2, 4]",Perceived inherent sweetness compared to solubilizing agent alone [2],Compound effects beyond the additive effect of inherent sweetness ([2]; pH 3),Perceived sweetness vs control sweetener solutions (FIG. 2) ([2]; pH 3),Compound effects beyond the additive effect of inherent sweetness ([2]; pH 7),Perceived sweetness vs control sweetener solutions (FIG. 1) ([2]; pH 7),"DA Panel Average Sweetness Intensity Score (on 15 cm scale) [2, 5]",Perceived sweetness compared to solubilizing agent alone (inherent sweetness) [2],further results
"COc1ccc(C2CC(=O)c3c(O)cccc3O2)cc1O (single isomer, unassigned) [Compound 2, 5-hydroxy-2-(3-hydroxy-4-methoxyphenyl)chroman-4-one]",>1.20,6.93,1.38,7.08,1.62,9.21,1.28,10.15,1.35,1.27,do not show further significant increase in perceived inherent sweetness,super-additive effects,significant increase in perceived sweetness,super-additive effects,significant increase in perceived sweetness,1.76,further increase in perceived sweetness,"Fold increase in perceived sweetness ([1]; test sample 5% sucrose, compound 15, 25 ppm with positive 2AFC): >1.20X; Fold increase in perceived sweetness ([1]; test sample 6.5% glucose, compound 10, 20, 25 ppm with positive 2AFC): >1.15X"
"COc1ccc(C2CC(=O)c3c(O)cccc3O2)cc1O (single isomer, unassigned) [Compound 3, 5-hydroxy-2-(3-hydroxy-4-methoxyphenyl)chroman-4-one]",>1.25,7.09,1.41,7.08,1.62,9.23,1.28,10.22,1.36,1.58,do not show further significant increase in perceived inherent sweetness,super-additive effects,significant increase in perceived sweetness,super-additive effects,significant increase in perceived sweetness,1.58,further increase in perceived sweetness,"Fold increase in perceived sweetness ([1]; test sample 5% sucrose, compound 15 ppm with positive 2AFC, positive control surpassed / test sweetener concentration): >1.20X; Fold increase in perceived sweetness ([1]; test sample 6.5% glucose, compound 25 ppm with positive 2AFC): >1.20X"
